Data taken from US9593113B2, “Imide and acylurea derivatives as modulators of the glucocorticoid receptor” (BRISTOL-MYERS SQUIBB COMPANY, priority 2013, dated 2017).
Where two headings read alike, the source gives them in different places.

Experiments:
[1] = biological target: human full-length glucocorticoid receptor (Homo sapiens (Human), UniProt P04150); assay: Glucocorticoid Receptor Binding Assay (II), fluorescence polarization competitor kit; conditions: read-out: GR (Ki, nM) (measured in GR binding Assay II)
Chain of human full-length glucocorticoid receptor (P04150 whole entry): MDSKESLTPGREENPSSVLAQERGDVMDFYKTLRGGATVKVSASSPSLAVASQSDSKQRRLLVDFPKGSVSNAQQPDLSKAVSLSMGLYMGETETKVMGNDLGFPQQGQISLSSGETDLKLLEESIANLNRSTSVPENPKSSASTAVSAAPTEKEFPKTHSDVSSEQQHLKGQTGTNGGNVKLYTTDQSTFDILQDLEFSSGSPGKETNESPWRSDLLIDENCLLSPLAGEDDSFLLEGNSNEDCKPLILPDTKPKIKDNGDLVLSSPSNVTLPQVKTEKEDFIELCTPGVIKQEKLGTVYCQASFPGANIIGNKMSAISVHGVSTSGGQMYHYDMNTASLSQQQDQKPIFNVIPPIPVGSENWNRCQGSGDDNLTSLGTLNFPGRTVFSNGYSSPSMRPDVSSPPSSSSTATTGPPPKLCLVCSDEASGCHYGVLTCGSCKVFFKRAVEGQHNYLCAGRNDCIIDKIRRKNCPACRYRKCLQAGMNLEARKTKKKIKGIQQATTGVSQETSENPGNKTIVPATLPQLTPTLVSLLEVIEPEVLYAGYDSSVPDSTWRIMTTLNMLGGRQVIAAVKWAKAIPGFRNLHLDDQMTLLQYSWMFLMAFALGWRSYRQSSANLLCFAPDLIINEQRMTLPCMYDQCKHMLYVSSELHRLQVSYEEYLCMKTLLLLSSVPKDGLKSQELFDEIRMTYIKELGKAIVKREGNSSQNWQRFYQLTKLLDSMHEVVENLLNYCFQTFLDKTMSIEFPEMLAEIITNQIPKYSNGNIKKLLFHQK
Method: In order to measure the binding of compounds on the glucocorticoid receptor a commercially available kit was used (Glucocorticoid receptor competitor assay kit, PanVera Co., Madison, Wis., P2816). Briefly, a cell lysate containing recombinantly expressed human full-length glucocorticoid receptor was mixed with a fluorescently labeled glucocorticoid (1 nM Fluormone GS1) in the presence or absence of test compound. After one hour at room temperature, the fluorescence polarization (FP) of the samples were measured.

[2] = tested on: AP-1 induced transcriptional activity; assay: Cellular transrepressional assay (AP-1 luciferase reporter, PMA-activated A549 cell); assay type: cell-based; conditions: for EC50: read-out: AP-1 (EC50, nM) (measured in cellular transrepression assay)
Method: To measure the ability of test molecules to inhibit AP-1 induced transcriptional activity we utilized an A549 cell which was stably transfected with a plasmid containing 7×AP-1 DNA binding sites (pAP-1-Luc plasmid, Stratagene Co., La Jolla, Calif.) followed by the gene for luciferase. Cells were activated with 10 ng/ml of phorbol myristic acid (PMA) plus or minus test molecules for 7 hours. After 7 hours a luciferase reagent was added to measure luciferase enzymatic activity in the cell. After a 10 minute incubation of luciferase reagent with cells, luminescence was measured in a TOPCOUNT® luminescence counter. Repression of AP-1 activity was calculated as the percentage decrease in the signal induced by PMA alone. Test molecules were analyzed in the concentration range from 0.1 nM to 40 μM. EC50s were determined by using standard curve fitting methods such as Excel fit (Microsoft Co.). An EC50 is the test molecule concentration at which there is a 50% repression of the maximal inhibition of transcription, i.e., a 50% reduction of AP-1 activity.

[3] = A549 cell, 10 ng/ml PMA, 7 hours
[4] = Homo sapiens, A549 cell, 10 ng/ml PMA, 7 hours

SMILES | Ki [1] | AP-1 Max % inhibition (measured in cellular transrepression assay) [2, 3] | EC50 [2, 3] | EC50 [2, 4] | AP-1 Max % inhibition (measured in cellular transrepression assay) [2] | EC50 [2]
CNC(=O)NC(=O)C(C)(C)[C@@H]1c2ccc(-c3ccc(OC(C)C)nc3)nc2Oc2c(F)cccc21 [Example 17] | 9.68 nM | 37.10% | 2500 nM | – | – | –
CC(C)(C(=O)NC(N)=O)[C@H]1c2ccccc2Oc2nc(-c3ccc(C(=O)N4CCCC4)nc3)ccc21 [Example 54] | 7.65 nM | 55.36% | 67.2 nM | – | – | –
CC(C)(C(=O)NC(N)=O)[C@@H]1c2ccc(-c3ccc(NC4CC4)nc3)nc2Oc2c(F)cccc21 [Example 62] | 1.15 nM | 64.75% | 8.24 nM | – | – | –
CC(C)(C(=O)NC(N)=O)[C@@H]1c2ccc(-c3ccc(C(=O)N4CC[C@@H](F)C4)cc3)nc2Oc2c(F)cccc21 [Example 85] | 1.2 nM | 76.00% | – | 0.8 nM | – | –
CNC(=O)NC(=O)C(C)(C)[C@@H]1c2ccc(-c3ccc(C(=O)N4CCCC4)cc3)nc2Oc2c(F)cccc21 [Example 11] | 4.44 nM | 46.34% | 29.6 nM | – | – | –
CC(C)Oc1ccc(-c2ccc3c(n2)Oc2c(F)cccc2[C@@H]3C(C)(C)C(=O)NC(N)=O)cc1F [Example 35] | 0.4 nM | 54.04% | 7.5 nM | – | – | –
CC(C)S(=O)(=O)c1ccc(-c2ccc3c(n2)Oc2c(F)cccc2[C@@H]3C(C)(C)C(=O)NC(N)=O)cc1 [Example 32] | 3.55 nM | 59.56% | 4.89 nM | – | – | –
CC(C)(C(=O)NC(N)=O)[C@H]1c2ccccc2Oc2nc(-c3ccc(C(=O)N4CCC(F)(F)C4)c(Cl)c3)ccc21 [Example 53] | 369 nM | 28.67% | 2500 nM | – | – | –
CC(C)(C(=O)NC(N)=O)[C@@H]1c2ccc(-c3ccc(C(=O)N4CCCCC4)cc3)nc2Oc2c(F)cccc21 [Example 83] | 1.11 nM | 86.42% | – | 5.89 nM | – | –
CC(C)(C(=O)NC(N)=O)[C@H]1c2ccccc2Oc2nc(-c3cc[n+]([O-])cc3)ccc21 [Example 76] | 119 nM | 23.09% | 327 nM | – | – | –
CC(C)(C(=O)NC(N)=O)[C@@H]1c2ccc(-c3ccc(C(=O)N4CCCC4)cc3)nc2Oc2c(F)cccc21 [Example 30] | 0.72 nM | 63.94% | 1.59 nM | – | – | –
CC(C)Nc1ccc(-c2ccc3c(n2)Oc2c(F)cccc2[C@@H]3C(C)(C)C(=O)NC(N)=O)cn1 [Example 60] | 1.13 nM | – | – | – | 66.44% | 2.9 nM
CC(C)Oc1ccc(-c2ccc3c(n2)Oc2ccccc2[C@@H]3C(C)(C)C(=O)NC(N)=O)cc1 [Example 36] | 0.8 nM | 59.83% | 16.2 nM | – | – | –
CCS(=O)(=O)c1ccc(-c2ccc3c(n2)Oc2ccccc2[C@@H]3C(C)(C)C(=O)NC(N)=O)cc1 [Example 39] | 0.93 nM | 58.23% | 13 nM | – | – | –
CC(C)Oc1ccc(-c2ccc3c(n2)Oc2ccccc2[C@@H]3C(C)(C)C(=O)NC(N)=O)cn1 [Example 65] | 0.5 nM | 54.73% | 4.89 nM | – | – | –
CCC(C)c1ccc(-c2ccc3c(n2)Oc2ccccc2[C@@H]3C(C)(C)C(=O)NC(N)=O)cc1 (stereo partly drawn) [Example 38] | 1.74 nM | 56.33% | 14.1 nM | – | – | –
CC(C)(O)c1ccc(-c2ccc3c(n2)Oc2ccccc2[C@@H]3C(C)(C)C(=O)NC(N)=O)cc1 [Example 70] | 1.19 nM | 79.50% | – | 8.94 nM | – | –
